Measured values taken from US9718841B2, “Bicyclic pyrazolone compounds and methods of use” (CALITOR SCIENCES, LLC, priority 2014, dated 2017).

Columns and labels:
[1] = Pharmacokinetic profiles in rats; type: in vivo; details: bioavailability
Protocol: The compounds disclosed herein are assessed in pharmacokinetic studies in mice, rats, dogs or monkeys. The compounds are administered as a water solution, 2% HPMC+1% TWEEN® 80 in water solution, 5% DMSO+5% solutol in saline, 4% MC suspension or capsule. For the intravenous administration, the animals are generally given at 1 or 2 mg/kg dose. For the oral (p.o.) dosing, mice and rats are generally given 5 or 10 mg/kg dose, and dogs and monkeys are generally given 10 mg/kg dose. The blood samples (0.3 mL) are drawn at 0.25, 0.5, 1.0, 2.0, 3.0, 4.0, 6.0, 8.0, 12 and 24 h time points or 0.083, 0.25, 0.5, 1.0, 2.0, 4.0, 6.0, 8.0 and 24 h time points and centrifuged at 3,000 or 4000 rpm for 2 to 10 min. The plasma solutions are collected, and stored at −20° C. or −70° C. until analyzed by LC/MS/MS as described above.

[2] = Compound stability in human liver microsomes; type: in vitro ADME; details: 37° C.
Protocol: Human or rat liver microsomes incubations were conducted in duplicate in polypropylene tubes. The typical incubation mixtures consisted of human or rat liver microsomes (0.5 mg protein/mL), compounds of interest (5 μM) and NADPH (1.0 mM) in a total volume of 200 μL potassium phosphate buffer (PBS, 100 mM, pH 7.4). Compounds were dissolved in DMSO and diluted with PBS such that the final concentration of DMSO was 0.05%. The enzymatic reactions were commenced with the addition of protein after a 3-min preincubation and incubated in a water bath open to the air at 37° C. Reactions were terminated at various time points (0, 5, 10, 15, 30, 60 min) by adding equal volume of ice-cold acetonitrile. The samples were stored at −80° C. until LC/MS/MS assays.
The concentrations of compounds in the incubation mixtures of human or rat liver microsomes were determined by a LC/MS/MS method. The ranges of the linearity in the concentration range were determined for each tested compounds.
A parallel incubation was performed using denatured microsomes as the negative control, and reactions were terminated at various time points (0, 15, 60 min) after incubation at 37° C.
Dextromethorphan (70 μM) was selected as the positive control, and reactions were terminated at various time points (0, 5, 10, 15, 30, 60 min) after incubation at 37° C. […]

SMILES | F [1] [%] | T1/2 [2]
O=C(Nc1ccc(Oc2ccnc(NC(=O)C3CC3)c2)cc1)c1c2n(n(-c3ccccc3)c1=O)CCC2 [Ex. 2, N-(4-((2-(cyclopropanecarboxamido)pyridin-4-yl)oxy)phenyl)-2-oxo-1-phenyl-2,4,5,6-tetrahydro-1H-pyrrolo[1,2-b]pyrazole-3-carboxamide] | 68.1 | 
CC(=O)Nc1cc(Oc2ccc(NC(=O)c3c4n(n(-c5ccccc5)c3=O)CCC4)cc2)ccn1 [Ex. 3, N-(4-((2-acetamidopyridin-4-yl)oxy)phenyl)-2-oxo-1-phenyl-2,4,5,6-tetrahydro-1H-pyrrolo[1,2-b]pyrazole-3-carboxamide] | 94.5 | 
CC(=O)Nc1cc(Oc2ccc(NC(=O)c3c4n(n(-c5ccccc5)c3=O)CCOC4)nc2)ccn1 [Ex. 12, N-(5-((2-acetamidopyridin-4-yl)oxy)pyridin-2-yl)-2-oxo-1-phenyl-2,4,6,7-tetrahydro-1H-pyrazolo[5,1-c][1,4]oxazine-3-carboxamide] | 72.1 | ∞
O=C(Nc1ccc(Oc2ccnc(NC(=O)C3CC3)c2)cn1)c1c2n(n(-c3ccccc3)c1=O)CCC2 [Ex. 14, N-(5-((2-(cyclopropanecarboxamido)pyridin-4-yl)oxy)pyridin-2-yl)-2-oxo-1-phenyl-2,4,5,6-tetrahydro-1H-pyrrolo[1,2-b]pyrazole-3-carboxamide] | 87.9 | 

Next, values leading:

F [1] [%] | T1/2 [2] | SMILES
163.3 |  | Nc1cc(Oc2ccc(NC(=O)c3c4n(n(-c5ccccc5)c3=O)CCC4)cc2)ccn1 [Ex. 1, N-(4-((2-aminopyridin-4-yl)oxy)phenyl)-2-oxo-1-phenyl-2,4,5,6-tetrahydro-1H-pyrrolo[1,2-b]pyrazole-3-carboxamide]
66.7 | ∞ | O=C(Nc1ccc(Oc2ccnc(NC(=O)C3CC3)c2)cc1)c1c2n(n(-c3ccccc3)c1=O)CCOC2 [Ex. 19, N-(4-((2-(cyclopropanecarboxamido)pyridin-4-yl)oxy)phenyl)-2-oxo-1-phenyl-2,4,6,7-tetrahydro-1H-pyrazolo[5,1-c][1,4]oxazine-3-carboxamide]
